Data from US8987312B2, “Alpha-keto heterocycles as FAAH inhibitors” (The Scripps Research Institute, priority 2008, dated 2015).
Read-outs that look alike come from different tables or passages of the source.

Experiments:
Assay type in all cases: biochemical
[1] = molecular target: T1, purified recombinant rat FAAH (Rattus norvegicus, UniProt P97612); assay: FAAH inhibition enzyme assay (14C-oleamide hydrolysis, Dixon plot), rat enzyme
T1 construct: The truncated rat FAAH (rFAAH) was expressed in E. coli and purified as described; made in house; host or cells: Escherichia coli
T1 sequence (P97612 30-579 limits assumed): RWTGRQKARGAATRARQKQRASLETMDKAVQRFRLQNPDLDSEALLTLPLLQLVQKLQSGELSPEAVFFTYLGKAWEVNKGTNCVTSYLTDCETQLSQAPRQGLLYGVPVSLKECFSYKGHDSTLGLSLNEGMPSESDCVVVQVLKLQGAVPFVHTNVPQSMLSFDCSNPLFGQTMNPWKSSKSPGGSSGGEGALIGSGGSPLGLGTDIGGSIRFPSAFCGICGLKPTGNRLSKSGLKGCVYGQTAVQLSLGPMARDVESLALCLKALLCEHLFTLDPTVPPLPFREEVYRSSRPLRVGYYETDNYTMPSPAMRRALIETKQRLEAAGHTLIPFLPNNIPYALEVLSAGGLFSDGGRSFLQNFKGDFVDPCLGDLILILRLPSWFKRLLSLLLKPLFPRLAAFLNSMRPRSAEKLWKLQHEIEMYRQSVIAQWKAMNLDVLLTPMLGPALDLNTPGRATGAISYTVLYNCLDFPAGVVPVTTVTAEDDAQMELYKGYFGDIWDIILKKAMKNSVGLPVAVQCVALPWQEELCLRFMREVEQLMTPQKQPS
Source text: (§1) The purified recombinant rFAAH was used in the inhibition assays unless otherwise indicated.
(§2) The ^14C-labeled oleamide (substrate) and oleic acid (product) were extracted with EtOAc and analyzed by TLC.

FAAH = molecular target: T2, FAAH (Mus musculus, UniProt O08914); assay: Activity based protein profiling (proteome-wide selectivity screening, FP-Rh), FAAH; conditions: Table 4
T2 construct: with FP-Rh in brain and heart membrane proteome; from tissue; host or cells: brain and heart membrane proteome
T2 sequence (O08914 1-579): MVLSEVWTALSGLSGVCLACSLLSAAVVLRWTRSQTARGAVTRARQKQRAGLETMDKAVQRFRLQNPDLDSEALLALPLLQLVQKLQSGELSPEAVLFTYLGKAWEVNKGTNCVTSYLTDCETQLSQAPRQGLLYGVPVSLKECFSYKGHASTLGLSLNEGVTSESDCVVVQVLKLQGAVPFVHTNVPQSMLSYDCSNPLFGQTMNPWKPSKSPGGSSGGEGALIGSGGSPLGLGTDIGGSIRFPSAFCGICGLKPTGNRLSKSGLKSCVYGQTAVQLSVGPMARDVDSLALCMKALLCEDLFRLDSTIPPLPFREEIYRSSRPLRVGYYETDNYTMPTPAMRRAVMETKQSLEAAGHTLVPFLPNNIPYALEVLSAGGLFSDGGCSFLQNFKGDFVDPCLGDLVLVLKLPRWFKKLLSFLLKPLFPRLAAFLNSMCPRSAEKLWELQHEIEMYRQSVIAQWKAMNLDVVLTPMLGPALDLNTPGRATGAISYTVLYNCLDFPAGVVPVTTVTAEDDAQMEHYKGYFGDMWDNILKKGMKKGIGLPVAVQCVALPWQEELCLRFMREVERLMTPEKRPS
Source text: (§3) Enzyme targets such as FAAH, KIAA1363, and TGH are labeled at the left margin.

KIAA1363 = molecular target: T3, KIAA1363 (Mus musculus, UniProt Q8BLF1); assay: Activity based protein profiling (proteome-wide selectivity screening, FP-Rh), KIAA1363; conditions: Table 4; for IC50: activity based protein profiling; for KIAA1363 selectivity (value in parentheses): ratio KIAA1363 IC50 / FAAH IC50 (fold selectivity for FAAH)
T3 construct: with FP-Rh in brain and heart membrane proteome; from tissue; host or cells: brain and heart membrane proteome
T3 sequence (Q8BLF1 1-408): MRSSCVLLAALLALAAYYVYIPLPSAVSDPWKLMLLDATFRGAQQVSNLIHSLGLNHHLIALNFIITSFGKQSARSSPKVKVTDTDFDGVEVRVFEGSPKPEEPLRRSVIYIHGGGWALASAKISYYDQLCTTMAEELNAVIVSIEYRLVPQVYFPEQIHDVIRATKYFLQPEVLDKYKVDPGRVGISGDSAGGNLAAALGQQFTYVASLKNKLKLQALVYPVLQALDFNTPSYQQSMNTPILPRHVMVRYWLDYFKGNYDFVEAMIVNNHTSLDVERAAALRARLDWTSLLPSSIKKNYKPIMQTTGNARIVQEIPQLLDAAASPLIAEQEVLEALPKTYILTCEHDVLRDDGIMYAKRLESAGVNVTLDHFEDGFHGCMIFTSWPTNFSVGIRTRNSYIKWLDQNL
Source text: as §3

[2] = molecular target: T4, triacylglycerol hydrolase (TGH) (Mus musculus, UniProt Q8VCT4); assay: Activity based protein profiling (proteome-wide selectivity screening, FP-Rh), TGH; conditions: Table 4; for IC50: activity based protein profiling; for TGH selectivity (value in parentheses): ratio TGH IC50 / FAAH IC50 (fold selectivity for FAAH)
T4 construct: with FP-Rh in brain and heart membrane proteome; from tissue; host or cells: brain and heart membrane proteome
T4 sequence (Q8VCT4 19-565): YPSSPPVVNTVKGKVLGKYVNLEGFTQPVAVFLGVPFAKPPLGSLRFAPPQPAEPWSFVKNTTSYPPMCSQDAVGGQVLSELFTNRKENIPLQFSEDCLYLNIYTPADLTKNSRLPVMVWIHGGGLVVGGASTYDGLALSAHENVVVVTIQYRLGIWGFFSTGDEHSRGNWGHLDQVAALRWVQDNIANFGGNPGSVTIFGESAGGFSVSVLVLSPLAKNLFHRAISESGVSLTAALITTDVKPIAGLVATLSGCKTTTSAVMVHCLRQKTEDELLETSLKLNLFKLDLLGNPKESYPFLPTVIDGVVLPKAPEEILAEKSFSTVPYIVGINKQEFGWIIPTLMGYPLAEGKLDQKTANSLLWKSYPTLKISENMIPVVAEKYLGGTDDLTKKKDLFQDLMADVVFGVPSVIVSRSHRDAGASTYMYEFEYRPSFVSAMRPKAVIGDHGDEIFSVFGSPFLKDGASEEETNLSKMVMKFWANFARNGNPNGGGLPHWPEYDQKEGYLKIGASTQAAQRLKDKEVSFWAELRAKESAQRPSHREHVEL
Source text: as §3

[3] = molecular target: T5, recombinant human fatty acid amide hydrolase (Homo sapiens, UniProt O00519); assay: FAAH inhibition enzyme assay, human enzyme (COS-7 lysate); conditions: Table 3
T5 construct: The full-length human FAAH (hFAAH) was expressed in COS-7 cells as described; expressed in transfected cells; host or cells: COS-7
T5 sequence (O00519 1-579): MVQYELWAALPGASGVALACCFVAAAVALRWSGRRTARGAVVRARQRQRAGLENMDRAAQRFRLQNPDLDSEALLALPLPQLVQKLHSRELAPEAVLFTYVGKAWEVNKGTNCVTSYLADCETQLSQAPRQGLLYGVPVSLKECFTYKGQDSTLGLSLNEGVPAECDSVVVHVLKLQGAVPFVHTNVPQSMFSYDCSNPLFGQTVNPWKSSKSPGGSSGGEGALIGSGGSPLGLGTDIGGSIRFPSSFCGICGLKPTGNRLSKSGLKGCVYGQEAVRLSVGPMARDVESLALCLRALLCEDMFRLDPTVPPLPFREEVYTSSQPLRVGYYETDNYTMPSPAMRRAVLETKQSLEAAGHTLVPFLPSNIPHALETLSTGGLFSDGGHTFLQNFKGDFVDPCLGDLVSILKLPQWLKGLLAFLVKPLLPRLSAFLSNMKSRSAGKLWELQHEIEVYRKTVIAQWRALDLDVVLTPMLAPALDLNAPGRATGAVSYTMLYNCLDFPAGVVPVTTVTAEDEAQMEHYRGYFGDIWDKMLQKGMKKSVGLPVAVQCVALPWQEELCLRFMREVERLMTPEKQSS
Source text: as §1, §2

[4] = Table 2, rat FAAH, pH 9 assay conditions, read-out: Ki

`O=C(CCCCCCc1ccccc1)c1nncs1` [12a, 7-Phenyl-1-(1,3,4-thiadiazol-2-yl)-heptan-1-one] gave a Ki [1, 4] of 1.4 nM, a Ki ([1]; Table 4, read-out: FAAH Ki) of 1.4 nM and an IC50 (FAAH) of 300 nM. The IC50 (KIAA1363) was over 100000 nM, the “KIAA1363 selectivity (value in parentheses)” value (“KIAA1363 selectivity” below) (KIAA1363) was over 330 and the IC50 [2] was 100 nM.

`O=C(CCCCCCc1ccccc1)c1ncno1` [9a, 1-(1,2,4-Oxadiazol-5-yl)-7-phenylheptan-1-one] gave a Ki [1, 4] of 1 nM, a Ki ([1]; Table 4, read-out: FAAH Ki) of 1 nM and an IC50 (FAAH) of 4 nM. The IC50 (KIAA1363) was 25000 nM, the “KIAA1363 selectivity” value (KIAA1363) was 6250 and the IC50 [2] was 0.7 nM. The “TGH selectivity (value in parentheses)” value [2] was 0.18.

Molecule `O=C(CCCCCCc1ccccc1)c1ncon1` [10a, 1-(1,2,4-Oxadiazol-3-yl)-7-phenylheptan-1-one] has a Ki [1, 4] of 7 nM, a Ki ([1]; Table 4, read-out: FAAH Ki) of 7 nM and an IC50 (FAAH) of 500 nM. The IC50 (KIAA1363) was over 100000 nM, the “KIAA1363 selectivity” value (KIAA1363) was over 200 and the IC50 [2] was 10 nM. For the same molecule, the “TGH selectivity (value in parentheses)” value [2] was 0.02.

`O=C(CCCCCCc1ccccc1)c1nnco1` [8a, 1-(1,3,4-Oxadiazol-2-yl)-7-phenylheptan-1-one] gave a Ki [1, 4] of 1 nM, a Ki ([1]; Table 4, read-out: FAAH Ki) of 1 nM and an IC50 (FAAH) of 16 nM. For the same molecule, the IC50 (KIAA1363) was over 100000 nM, the “KIAA1363 selectivity” value (KIAA1363) was over 6250 and the IC50 [2] was 25 nM. For the same molecule, the “TGH selectivity (value in parentheses)” value [2] was 1.5.

`COC(=O)c1nc(C(=O)CCCCCCc2ccccc2)no1` [10h, Methyl 3-(7-Phenylheptanoyl)-1,2,4-oxadiazole-5-carboxylate] showed a Ki ([1]; Table 4, read-out: FAAH Ki) of 7 nM, a Ki ([1]; rat FAAH, pH 9, read-out: Ki) of under 10 nM and an IC50 (FAAH) of 10 nM. For the same molecule, the IC50 (KIAA1363) was over 100000 nM, the “KIAA1363 selectivity” value (KIAA1363) was over 10000 and the IC50 [2] was 200 nM. The “TGH selectivity (value in parentheses)” value [2] was 20.

`O=C(CCCCCCc1ccccc1)c1ncc(-c2ccco2)o1` [7c] gave a Ki [1, 4] of 12 nM, a Ki ([1]; Table 4, read-out: FAAH Ki) of 12 nM and an IC50 (FAAH) of 80 nM. The IC50 (KIAA1363) was over 100000 nM, the “KIAA1363 selectivity” value (KIAA1363) was over 1250 and the IC50 [2] was 300 nM. For the same molecule, the “TGH selectivity (value in parentheses)” value [2] was 4.

`O=C(O)c1cccc(-c2nnc(C(=O)CCCCCCc3ccccc3)o2)n1` [8g] was tested, and the Ki [3] was 0.037 µM, the IC50 (KIAA1363) was over 100000 nM and the IC50 [2] was 40000 nM.

`O=C(CCCCCCc1ccccc1)c1cccnn1` [13a, 7-Phenyl-1-(pyridazin-3-yl)-heptan-1-one] gave a Ki [1, 4] of 140 nM, a Ki ([1]; Table 4, read-out: FAAH Ki) of 140 nM and an IC50 (FAAH) of 3000 nM. The IC50 (KIAA1363) was over 100000 nM, the “KIAA1363 selectivity” value (KIAA1363) was over 30 and the IC50 [2] was 5000 nM. For the same molecule, the “TGH selectivity (value in parentheses)” value [2] was 1.

For `O=C(CCCCCCc1ccccc1)c1nccs1` [11a, 7-Phenyl-1-(thiazol-2-yl)-heptan-1-one], the Ki [1, 4] was 800 nM, the Ki ([1]; Table 4, read-out: FAAH Ki) was 800 nM and the IC50 (FAAH) was over 100000 nM. The IC50 (KIAA1363) was over 100000 nM.
